Data: US10774083B2, “Heterocyclic amide compound” (TAKEDA PHARMACEUTICAL COMPANY LIMITED, priority 2016, dated 2020)

Assays:
[1] = test system: human ovarian cancer cells A2780; assay: proliferation inhibitory activity against human ovarian cancer cell A2780 (CellTiter-Glo); format: cell-based; settings: A2780, 72 h, 1 μM test compound, 3 days of culture, read-out: proliferation inhibitory rate (%) of A2780 cells
Description: The proliferation inhibitory activity of the compound of the present invention against human ovarian cancer cell A2780 was evaluated by the following method.
Human ovarian cancer cells A2780 were seeded in a 384 well culture plate at 1000 cells in 30 μL of medium per well by using RPMI-1640 medium (Wako Pure Chemical Industries, Ltd.) containing 10% fetal bovine serum and penicillin/streptomycin. The next day, 10 μL of RPMI-1640 medium containing the test compound was added to the cells. After 3 days of culture, 20 μL of CellTiter-Glo Luminescent Cell Viability Assay solution (Promega) was added. The luminescence signal was measured using EnVision (PerkinElmer) and the inhibitory rate (%) of the test compound was calculated with a well free of seeding of cell as 100% inhibition.

[2] = molecular target: T1, human PRS protein (His-Avi-hEPRS (998-1512)) (Homo sapiens, UniProt P07814); assay: PRS inhibitory activity ([32P]pyrophosphate exchange enzyme assay); format: biochemical; settings: 300 nM test compound; read-out: inhibitory rate (%) of PRS
T1 construct: to construct His-Avi-hEPRS (998-1512) expression plasmid; His tag (N); Avi tag (N); TEV cleavage site (ENLYFQG, then S; inferred from the forward primer hEPRS-TEV-NheF) (N); made in house; host or cells: E. coli BL21(DE3)
T1 sequence (P07814 998-1512 limits assumed): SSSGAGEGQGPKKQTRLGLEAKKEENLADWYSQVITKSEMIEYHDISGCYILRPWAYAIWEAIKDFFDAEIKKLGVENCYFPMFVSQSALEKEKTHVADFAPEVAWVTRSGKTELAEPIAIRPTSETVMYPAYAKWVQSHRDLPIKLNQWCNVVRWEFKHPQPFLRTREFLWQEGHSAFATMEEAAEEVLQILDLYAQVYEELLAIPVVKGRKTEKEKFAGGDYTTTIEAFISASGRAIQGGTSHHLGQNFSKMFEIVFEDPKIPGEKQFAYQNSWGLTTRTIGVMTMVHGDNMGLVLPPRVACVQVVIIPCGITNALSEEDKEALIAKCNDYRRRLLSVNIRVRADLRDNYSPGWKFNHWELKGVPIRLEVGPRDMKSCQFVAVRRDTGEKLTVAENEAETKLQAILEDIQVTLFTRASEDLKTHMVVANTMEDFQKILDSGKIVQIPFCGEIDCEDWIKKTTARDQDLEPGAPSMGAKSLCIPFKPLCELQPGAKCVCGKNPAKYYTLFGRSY
Method in brief: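 Compound was pre-incubated 60 min with 40 nM His-Avi-hEPRS (998-1512) (stock, E. coli-expressed) in Tris pH 7.5/KCl/DTT/Tween/MgCl2. Reaction began with substrate mix containing 300 μM ATP, 160 μM L-proline, 400 μM [32P]pyrophosphate (stock levels) and ran 30 min at room temperature. Charcoal-bound radioactivity was counted; inhibition was relative to no-reaction control.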

inhibition at 0.3 µM [2]	Structure (SMILES)	inhibition at 1 µM [1]
99%	Cn1cc(-c2cc(F)cc(CNC(=O)c3ncnc4nc(C5CCC5)[nH]c34)c2)cn1 [Example 58, 8-cyclobutyl-N-(3-fluoro-5-(1-methyl-1H-pyrazol-4-yl)benzyl)-7H-purine-6-carboxamide]	66%
100%	Cc1cc(N2CCC(C)(C)C2=O)cc(C(=O)NCc2cc(F)cc(-c3cnn(C)c3)c2)n1 [Example 165, 4-(3,3-dimethyl-2-oxopyrrolidin-1-yl)-N-(3-fluoro-5-(1-methyl-1H-pyrazol-4-yl)benzyl)-6-methylpyridine-2-carboxamide]	75%
101%	Cc1cc(N2CC[C@@](C#N)(C3CC3)C2=O)cc(C(=O)NCc2cc(F)cc(-c3cnn(C4CCOCC4)c3)c2)n1 [Example 182, 4-((3S)-3-cyano-3-cyclopropyl-2-oxopyrrolidin-1-yl)-N-(3-fluoro-5-(1-(tetrahydro-2H-pyran-4-yl)-1H-pyrazol-4-yl)benzyl)-6-methylpyridine-2-carboxamide]	97%
101%	Cn1cc(-c2cc(F)cc(CNC(=O)c3nccc4nc(C5CCCC5)n(CCO)c34)c2)cn1 [Example 115, 2-cyclopentyl-N-(3-fluoro-5-(1-methyl-1H-pyrazol-4-yl)benzyl)-3-(2-hydroxyethyl)-3H-imidazo[4,5-c]pyridine-4-carboxamide]	94%
97%	O=C(NCc1ccccc1Cl)c1nccc2nc(C3CCCC3)[nH]c12 [Example 81, N-(2-chlorobenzyl)-2-cyclopentyl-3H-imidazo[4,5-c]pyridine-4-carboxamide]	56%
101%	Cc1cc(N2CC[C@@](C#N)(C3CC3)C2=O)cc(C(=O)NCc2cc(Cl)cc(-c3cnn(C)c3)c2)n1 [Example 216, N-(3-chloro-5-(1-methyl-1H-pyrazol-4-yl)benzyl)-4-((3S)-3-cyano-3-cyclopropyl-2-oxopyrrolidin-1-yl)-6-methylpyridine-2-carboxamide]	89%
102%	Cn1cc(-c2cc(C#N)cc(CNC(=O)c3ncnc4nc(C5CCCC5)[nH]c34)c2)cn1 [Example 16, N-(3-cyano-5-(1-methyl-1H-pyrazol-4-yl)benzyl)-8-cyclopentyl-7H-purine-6-carboxamide]	93%
99%	COc1nc(C(=O)NCc2cc(F)cc(-c3cnn(C)c3)c2)c2[nH]c(C3CCCC3)nc2n1 [Example 18, 8-cyclopentyl-N-(3-fluoro-5-(1-methyl-1H-pyrazol-4-yl)benzyl)-2-methoxy-7H-purine-6-carboxamide]	77%
100%	Cc1cc(N2CCC(C#N)(C3CCC3)C2=O)cc(C(=O)NCc2cc(F)cc(-c3cnn(C)c3)c2)n1 (stereo not drawn) [Example 229, 4-(3-cyano-3-cyclobutyl-2-oxopyrrolidin-1-yl)-N-(3-fluoro-5-(1-methyl-1H-pyrazol-4-yl)benzyl)-6-methylpyridine-2-carboxamide]	91%
101%	Cc1cc(N2CC[C@@](C#N)(C3CC3)C2=O)nc(C(=O)NCc2cc(F)cc(-c3cnn(C)c3)c2)n1 [Example 238, 4-((3S)-3-cyano-3-cyclopropyl-2-oxopyrrolidin-1-yl)-N-(3-fluoro-5-(1-methyl-1H-pyrazol-4-yl)benzyl)-6-methylpyrimidine-2-carboxamide]	95%
101%	Cn1cc(-c2cc(F)cc(CNC(=O)c3ncnc4nc(C5CCCC5)n(C)c34)c2)cn1 [Example 3, 8-cyclopentyl-N-(3-fluoro-5-(1-methyl-1H-pyrazol-4-yl)benzyl)-7-methyl-7H-purine-6-carboxamide]	99%
102%	Cn1cc(-c2cc(F)cc(CNC(=O)c3nccc4nc(C5CCCC5)n(CC(N)=O)c34)c2)cn1 [Example 128, 3-(2-amino-2-oxoethyl)-2-cyclopentyl-N-(3-fluoro-5-(1-methyl-1H-pyrazol-4-yl)benzyl)-3H-imidazo[4,5-c]pyridine-4-carboxamide]	97%
100%	Cn1cc(-c2cc(F)cc(CNC(=O)c3nccc4nc(Cc5ccccc5)[nH]c34)c2)cn1 [Example 109, 2-benzyl-N-(3-fluoro-5-(1-methyl-1H-pyrazol-4-yl)benzyl)-3H-imidazo[4,5-c]pyridine-4-carboxamide]	84%
101%	Cn1cc(-c2cc(F)cc(CNC(=O)c3nccc4nc(C5CCCC5)n(CC#N)c34)c2)cn1 [Example 131, 3-(cyanomethyl)-2-cyclopentyl-N-(3-fluoro-5-(1-methyl-1H-pyrazol-4-yl)benzyl)-3H-imidazo[4,5-c]pyridine-4-carboxamide]	93%
102%	Cn1cc(-c2cc(F)cc(CNC(=O)c3ncnc4nc(C5CCC(F)(F)C5)[nH]c34)c2)cn1 (stereo not drawn) [Example 40, 8-(3,3-difluorocyclopentyl)-N-(3-fluoro-5-(1-methyl-1H-pyrazol-4-yl)benzyl)-7H-purine-6-carboxamide]	98%
101%	Cn1cc(-c2cc(F)cc(CNC(=O)c3nccc4nc(C5CCCC5)n(CC(=O)O)c34)c2)cn1 [Example 127, (2-cyclopentyl-4-((3-fluoro-5-(1-methyl-1H-pyrazol-4-yl)benzyl)carbamoyl)-3H-imidazo[4,5-c]pyridin-3-yl)acetic acid]	70%
99%	Cn1cc(NC(=O)c2cccc(CNC(=O)c3nccc4nc(C5CCCC5)[nH]c34)c2)cn1 [Example 106, 2-cyclopentyl-N-(3-((1-methyl-1H-pyrazol-4-yl)carbamoyl)benzyl)-3H-imidazo[4,5-c]pyridine-4-carboxamide]	84%
100%	Cc1cc(N2CC[C@@](C#N)(C3CC3)C2=O)cc(C(=O)NCc2cc(F)cc(-c3cnn(C4CC4)c3)c2)n1 [Example 168, 4-((3S)-3-cyano-3-cyclopropyl-2-oxopyrrolidin-1-yl)-N-(3-(1-cyclopropyl-1H-pyrazol-4-yl)-5-fluorobenzyl)-6-methylpyridine-2-carboxamide]	98%
102%	Cn1cc(-c2cc(F)cc(CNC(=O)c3ncnc4nc(C5CCCCO5)[nH]c34)c2)cn1 (stereo not drawn) [Example 31, N-(3-fluoro-5-(1-methyl-1H-pyrazol-4-yl)benzyl)-8-(tetrahydro-2H-pyran-2-yl)-7H-purine-6-carboxamide]	97%
102%	Cn1c(C2CCCC2)nc2ncnc(C(=O)NCc3cc(F)cc(-c4cnn(C(C)(C)CO)c4)c3)c21 [Example 30, 8-cyclopentyl-N-(3-fluoro-5-(1-(1-hydroxy-2-methylpropan-2-yl)-1H-pyrazol-4-yl)benzyl)-7-methyl-7H-purine-6-carboxamide]	99%
96%	Cn1cc(-c2cc(F)cc(CNC(=O)c3ncnc4nc(C5CCOC5)[nH]c34)c2)cn1 (stereo not drawn) [Example 24, N-(3-fluoro-5-(1-methyl-1H-pyrazol-4-yl)benzyl)-8-(tetrahydrofuran-3-yl)-7H-purine-6-carboxamide]	57%
100%	Cn1cc(-c2cccc(CNC(=O)c3nccc4nc(C5CCCC5)[nH]c34)c2)cn1 [Example 84, 2-cyclopentyl-N-(3-(1-methyl-1H-pyrazol-4-yl)benzyl)-3H-imidazo[4,5-c]pyridine-4-carboxamide]	97%
101%	Cn1cc(-c2cc(F)cc(CNC(=O)c3nccc4nc(C5CCCC5)[nH]c34)c2)nn1 [Example 89, 2-cyclopentyl-N-(3-fluoro-5-(1-methyl-1H-1,2,3-triazol-4-yl)benzyl)-3H-imidazo[4,5-c]pyridine-4-carboxamide]	98%
100%	Cn1cc(-c2cc(F)cc(CNC(=O)c3nccc4nc(C5CCOC5)n(C)c34)c2)cn1 (stereo not drawn) [Example 117, N-(3-fluoro-5-(1-methyl-1H-pyrazol-4-yl)benzyl)-3-methyl-2-(tetrahydrofuran-3-yl)-3H-imidazo[4,5-c]pyridine-4-carboxamide]	78%
